Experiments:
NRK [1] = assay: Cytotoxicity against rat NRK cells assessed as reduction in cell viability incubated for 24 hrs under 19% O2 condition by WST-1 assay; assay type: cell-based
H9c2 [2] = assay: Cytotoxicity against rat H9c2 cells assessed as reduction in cell viability incubated for 24 hrs under 19% O2 condition by WST-1 assay; assay type: cell-based; conditions: H9c2, 24 h
NRK [3] = assay: Cytotoxicity against rat NRK cells assessed as reduction in cell viability incubated for 24 hrs under 2% O2 condition by WST-1 assay; assay type: cell-based
MOLM-13 [4] = assay: Cytotoxicity against human MOLM13 cells assessed as reduction in cell viability incubated for 24 hrs under 19% O2 condition by WST-1 assay; assay type: functional, cell-based; conditions: MOLM-13, 24 h
MOLM-13 [5] = assay: Cytotoxicity against human MOLM13 cells assessed as reduction in cell viability incubated for 24 hrs under 2% O2 condition by WST-1 assay; assay type: functional, cell-based; conditions: MOLM-13, 24 h
[6] = Selectivity index, ratio of EC50 for rat NRK cells to EC50 for human MOLM13 cells under 2% O2 condition; assay type: toxicity; conditions: NRK cells versus MOLM13 cells, read-out: Ratio EC50
[7] = Selectivity index, ratio of EC50 for rat NRK cells to EC50 for human MOLM13 cells under 19% O2 condition; assay type: toxicity; conditions: NRK cells versus MOLM13 cells, read-out: Ratio EC50
[8] = Selectivity index, ratio of EC50 for rat NRK cells to EC50 for human MOLM13 cells; assay type: toxicity; conditions: NRK cells versus MOLM13 cells, read-out: Ratio EC50
[9] = Selectivity index, ratio of EC50 for rat H9c2 cells to EC50 for human MOLM13 cells; assay type: toxicity; conditions: H9c2 cells versus MOLM13 cells, read-out: Ratio EC50
[10] = Solubility of the compound in DMSO; assay type: physicochemical
H9c2 [11] = assay: Cytotoxicity against rat H9c2 cells assessed as reduction in cell viability incubated for 24 hrs under 19% O2 condition by Hoechst 33342 staining based microscopic analysis; conditions: H9c2, 24 h
NRK [12] = assay: Cytotoxicity against rat NRK cells assessed as reduction in cell viability incubated for 24 hrs under 19% O2 condition by Hoechst 33342 staining based microscopic analysis
NRK [13] = assay: Cytotoxicity against rat NRK cells assessed as reduction in cell viability incubated for 24 hrs under 2% O2 condition by Hoechst 33342 staining based microscopic analysis

Structure (SMILES)	EC50 (NRK [1])	EC50 (H9c2 [2])	EC50 (NRK [3])	EC50 (MOLM-13 [4])	EC50 (MOLM-13 [5])	selectivity ratio [6]	selectivity ratio [7]	selectivity ratio [8]	selectivity ratio [9]	solubility [10]	EC50 (H9c2 [11])	EC50 (NRK [12])	EC50 (NRK [13])
[O-][n+]1c2cccc(O)c2[n+]([O-])c2cccc(O)c21	> 50 µM	> 50 µM	> 50 µM	–	–	–	–	–	–	–	–	–	–
CCOC(=O)COc1cccc2c1[n+]([O-])c1cccc(O)c1[n+]2[O-]	12 µM	15 µM	18 µM	–	–	–	–	–	–	–	–	–	–
COc1cccc2c1[n+]([O-])c1cccc(O)c1[n+]2[O-]	77 µM	46 µM	76 µM	–	–	–	–	–	–	–	–	–	–
CCN(CC)C(=O)COc1cccc2c1[n+]([O-])c1cc(C)c(C)cc1[n+]2[O-]	21 µM	41 µM	52 µM	1.8 µM	3.4 µM	–	–	–	–	–	–	–	–
CCOC(=O)COc1cccc2c1[n+]([O-])c1cc(Br)c(Br)cc1[n+]2[O-]	10 µM	3.3 µM	9.7 µM	2.4 µM	1.6 µM	–	–	–	–	–	–	–	–
Cc1cc2c(cc1C)[n+]([O-])c1c(O)cccc1[n+]2[O-]	> 50 µM	> 50 µM	> 50 µM	2.8 µM	2.3 µM	–	–	–	–	–	–	–	–
CC(C)(C)OC(=O)COc1cccc2c1[n+]([O-])c1ccccc1[n+]2[O-]	26 µM	20 µM	25 µM	2.2 µM	1.9 µM	–	–	–	–	–	–	–	–
CN1CCN(C(=O)Oc2cccc3c2[n+]([O-])c2cc(Cl)c(Cl)cc2[n+]3[O-])CC1	11 µM	3.2 µM	15 µM	0.34 µM	0.32 µM	45	> 30	–	–	–	–	–	–
Cc1cc2c(cc1C)[n+]([O-])c1c(OC(=O)N3CCCC3)cccc1[n+]2[O-]	6.6 µM	8.7 µM	8.9 µM	1.5 µM	0.78 µM	–	–	–	–	–	–	–	–
CCOC(=O)Oc1cccc2c1[n+]([O-])c1cccc(OC(=O)OCC)c1[n+]2[O-]	> 25 µM	> 25 µM	> 25 µM	6.1 µM	4 µM	–	–	–	–	–	–	–	–
CN1CCN(C(=O)Oc2cccc3c2[n+]([O-])c2cccc(O)c2[n+]3[O-])CC1	53 µM	100 µM	59 µM	1.5 µM	1.4 µM	–	–	> 15	> 15	–	–	–	–
Cc1cc2c(cc1C)[n+]([O-])c1c(OC(=O)N3CCN(C)CC3)cccc1[n+]2[O-]	12 µM	9.4 µM	13 µM	0.63 µM	0.54 µM	–	–	–	–	–	–	–	–
CN1CCN(C(=O)Oc2cccc3c2[n+]([O-])c2cc4ccccc4cc2[n+]3[O-])CC1	2 µM	2.3 µM	7.5 µM	2.8 µM	1.8 µM	–	–	–	–	–	–	–	–
CN1CCN(C(=O)Oc2cccc3c2[n+]([O-])c2cc(Br)c(Br)cc2[n+]3[O-])CC1	6.2 µM	2.2 µM	7.6 µM	0.41 µM	0.23 µM	–	–	–	–	–	–	–	–
[O-][n+]1c2ccccc2[n+]([O-])c2c(O)cccc21	79 µM	> 100 µM	> 100 µM	11 µM	12 µM	–	–	–	–	–	–	–	–
O=C(Oc1cccc2c1[n+]([O-])c1cccc(O)c1[n+]2[O-])N1CCCC1	9.6 µM	12 µM	15 µM	0.86 µM	0.79 µM	–	–	> 15	> 15	–	–	–	–
COc1cccc2c1[n+]([O-])c1cccc(OC(=O)N(C)C)c1[n+]2[O-]	22 µM	35 µM	29 µM	1.9 µM	1.7 µM	–	–	> 15	> 15	–	–	–	–
CC(C)(C)C(=O)Oc1cccc2c1[n+]([O-])c1cccc(OC(=O)C(C)(C)C)c1[n+]2[O-]	–	> 25 µM	–	11 µM	8.9 µM	–	–	–	–	–	–	–	–

Structure (SMILES)	EC50 (NRK [1])	EC50 (H9c2 [2])	EC50 (NRK [3])	EC50 (MOLM-13 [4])	EC50 (MOLM-13 [5])	selectivity ratio [6]	selectivity ratio [7]	selectivity ratio [8]	selectivity ratio [9]	solubility [10]	EC50 (H9c2 [11])	EC50 (NRK [12])	EC50 (NRK [13])
CCOC(=O)COc1cccc2c1[n+]([O-])c1ccccc1[n+]2[O-]	26 µM	20 µM	25 µM	1.5 µM	1.7 µM	–	–	–	–	–	–	–	–
[O-][n+]1c2cc3ccccc3cc2[n+]([O-])c2c(O)cccc21	–	–	–	–	> 10 µM	–	–	–	–	Insoluble	–	–	–
CCOC(=O)COc1cccc2c1[n+]([O-])c1cc(Cl)c(Cl)cc1[n+]2[O-]	3.1 µM	1.3 µM	4.7 µM	0.41 µM	0.38 µM	–	–	–	–	–	–	–	–
CN(C)C(=O)Oc1cccc2c1[n+]([O-])c1cccc(O)c1[n+]2[O-]	49 µM	64 µM	62 µM	0.89 µM	0.7 µM	–	–	> 15	> 15	–	–	–	–
COc1cccc2c1[n+]([O-])c1cccc(OC(=O)N3CCN(C)CC3)c1[n+]2[O-]	26 µM	26 µM	39 µM	1 µM	0.98 µM	–	–	> 15	> 15	–	–	–	–
CCCCC(=O)Oc1cccc2c1[n+]([O-])c1cccc(OC(=O)CCCC)c1[n+]2[O-]	–	> 25 µM	–	36 µM	22 µM	–	–	–	–	–	–	–	–
CCN(CC)C(=O)COc1cccc2c1[n+]([O-])c1ccccc1[n+]2[O-]	13 µM	23 µM	16 µM	1.2 µM	1.4 µM	–	–	–	–	–	–	–	–
Cc1c(C)[n+]([O-])c2c(O)cccc2[n+]1[O-]	–	–	–	> 200 µM	> 200 µM	–	–	–	–	–	–	–	–
CCOC(=O)Oc1cccc2c1[n+]([O-])c1cccc(O)c1[n+]2[O-]	–	> 100 µM	–	50 µM	66 µM	–	–	–	–	–	–	–	–
CN(C)C(=O)Oc1cccc2c1[n+]([O-])c1ccccc1[n+]2[O-]	19 µM	16 µM	25 µM	1.3 µM	2.1 µM	–	–	–	–	–	–	–	–
O=C(Oc1cccc2c1[n+]([O-])c1ccccc1[n+]2[O-])N1CCCC1	18 µM	13 µM	21 µM	1.5 µM	1.2 µM	–	–	–	–	–	–	–	–
CCOC(=O)COc1cccc2c1[n+]([O-])c1cc(C)c(C)cc1[n+]2[O-]	–	> 100 µM	> 100 µM	8.3 µM	6.3 µM	–	–	–	–	–	–	–	–
Cc1c(C)[n+]([O-])c2c(OC(=O)N3CCN(C)CC3)cccc2[n+]1[O-]	–	–	–	> 200 µM	> 200 µM	–	–	–	–	–	–	–	–
Cc1c(C)[n+]([O-])c2c(OC(=O)N3CCOCC3)cccc2[n+]1[O-]	–	–	–	> 200 µM	> 200 µM	–	–	–	–	–	–	–	–
COc1cccc2c1[n+]([O-])c1cccc(OC(=O)N3CCCC3)c1[n+]2[O-]	32 µM	35 µM	35 µM	2 µM	1.8 µM	–	–	> 15	> 15	–	–	–	–
CN1CCN(C(=O)Oc2cccc3c2[n+]([O-])c2ccccc2[n+]3[O-])CC1	25 µM	36 µM	37 µM	1.5 µM	1.9 µM	–	–	–	–	–	–	–	–
Nc1n[n+]([O-])c2ccccc2[n+]1[O-] [TIRAPAZAMINE]	–	–	–	–	–	–	–	–	–	–	> 100 µM	> 100 µM	35 µM

— ChEMBL document CHEMBL4732033, “New prodrugs and analogs of the phenazine 5,10-dioxide natural products iodinin and myxin promote selective cytotoxicity towards human acute myeloid leukemia cells” (RSC Med Chem, 2021)
